Test results: the OPERA property sets (Mansouri et al. 2018)

Conditions: not given

Point of comparison: `CCOC(=O)C(O)(c1ccccc1)c1ccccc1`, melting point 34 °C. Against it:
- CCCCCCCCC(O)CCCCCCCC — higher, 61 °C
- CCOc1cccc(-c2ccccc2)c1 — higher, 35 °C
- O=Cc1ccc2c(c1)OCO2 — higher, 37 °C
- CCCCOC(=O)CC(CC(=O)OCCCC)(OC(C)=O)C(=O)OCCCC — lower, -80 °C
- CCOOCC — lower, -70 °C
- O=C[O-].[K+] — higher, 167 °C
- CCNc1ccc([N+](=O)[O-])cc1 — higher, 97 °C
- c1ccc2sc(SN3CCOCC3)nc2c1 — higher, 85 °C
- O=c1ccn([C@H]2CC[C@@H](CO)O2)c(=O)[nH]1 — higher, 128 °C
- COC(=O)CCCCC(=O)OC — lower, 10.3 °C
- O=C(O)C(O)(O)C(O)(O)C(=O)O — higher, 114 °C
- CCCCCCC(=O)OCCC — lower, -63.5 °C
- CN(C)B(F)N(C)C — lower, -44.3 °C
- N#Cc1cc(I)c(O)c([N+](=O)[O-])c1 — higher, 138 °C
- CCCCCCCCCCCCCCCCCCCCCCC — higher, 47.6 °C
- CCC1(CC2(c3cccc(Cl)c3)CO2)C(=O)c2ccccc2C1=O (stereo unspecified) — higher, 61 °C
- Nc1cccc(F)c1 — lower, -5 °C
- O=C(O)C(F)(F)C(F)(F)C(=O)O — higher, 119 °C
- C#CC(O)c1ccccc1 (stereo unspecified) — lower, 22 °C
- ICC(CI)(CI)CI — higher, 225 °C
- N=C(N)c1ccc(C=Cc2ccc(C(=N)N)cc2O)cc1 — higher, 235 °C
- CCOc1ccccc1 — lower, -29.5 °C
- CCc1cnc(C2=NC(C)(C(C)C)C(=O)N2)c(C(=O)O)c1 (stereo unspecified) — higher, 171 °C
- c1cncc([C@@H]2CCCCN2)c1 — lower, 9 °C
- CCCCCCCCCCCC(=O)OCC — lower, -10 °C
- O=C1OC(c2cc(Br)c(O)c(Br)c2)(c2cc(Br)c(O)c(Br)c2)c2ccccc21 — higher, 296 °C
- CCC(=O)c1cc(O)ccc1O — higher, 96.5 °C
- Cc1ccc(O)cc1Cl — higher, 55.5 °C
- C[C@]12CC[C@@H](O)C[C@H]1CC[C@@H]1[C@@H]2C(=O)C[C@@]2(C)[C@H]1CC[C@]2(O)C(=O)CO — higher, 214 °C
- CC(C)Nc1ccccc1 — lower, -10 °C
- C=CCC(=O)O — lower, -35 °C
- CC(C)/N=c1/cc2n(-c3ccc(Cl)cc3)c3ccccc3nc-2cc1Nc1ccc(Cl)cc1 — higher, 211 °C
- O=C=Nc1cccc(N=C=O)c1 — higher, 50 °C
- C#C[C@]1(O)CC[C@H]2[C@@H]3CCC4=CC(=O)CCC4=C3C=C[C@@]21C — higher, 169 °C
- c1ccc(Cc2cccnc2)cc1 — the same, 34 °C
- Cc1ccc(OCC(=O)O)cc1 — higher, 141 °C
- O=C(Cl)c1ccccc1Br — lower, 11 °C
- COc1cc(CCO)ccc1O — higher, 41 °C
- O=C1CSC(=S)N1c1ccccc1 — higher, 194 °C
- CC(=O)NC(CCC(N)=O)C(=O)O (stereo unspecified) — higher, 197 °C
- C=C(C)C(C)=O — lower, -54 °C
- CCC(C(C)C)C(C)C — lower, -122 °C
- O=Cc1ccc(F)cc1 — lower, -10 °C

Point of comparison: `CCCCOCCCC`, log10 Henry constant (atm·m³/mol) -2.22. Against it:
- Clc1cc(Cl)cc(-c2ccccc2Cl)c1 — lower, -3.7

Point of comparison: `CCOc1ccccc1`, boiling point 170 °C. Against it:
- CCOc1cccc(-c2ccccc2)c1 — higher, 305 °C
- O=Cc1ccc2c(c1)OCO2 — higher, 263 °C
- CCOOCC — lower, 65 °C
- CC(C)CCI — lower, 147 °C
- CCCCCCC(=O)OCCC — higher, 208 °C
- CN(C)B(F)N(C)C — lower, 106 °C
- CCCCCCCCCCCCCCCCCCCCCCC — higher, 380 °C
- CC(CCl)CCl — lower, 136 °C
- Nc1cccc(F)c1 — higher, 188 °C
- c1cncc([C@@H]2CCCCN2)c1 — higher, 276 °C
- CCCCCCCCCCCC(=O)OCC — higher, 271 °C
- Cc1ccc(O)cc1Cl — higher, 228 °C
- CSCC(C)C — lower, 112 °C
- CC(C)Nc1ccccc1 — higher, 203 °C
- CC(=O)OCCl — lower, 116 °C
- C=CCC(=O)O — lower, 169 °C
- c1ccc(Cc2cccnc2)cc1 — higher, 287 °C
- O=C(Cl)c1ccccc1Br — higher, 243 °C
- CCCCOCCCC — lower, 141 °C
- C=C(C)C(C)=O — lower, 98 °C
- CCC(C(C)C)C(C)C — lower, 137 °C
- CNCCN — lower, 115 °C
- O=Cc1ccc(F)cc1 — higher, 182 °C

Point of comparison: `CCCCOCCCC`, log10 vapour pressure (mmHg) 0.779. Against it:
- O=Cc1ccc2c(c1)OCO2 — lower, -2
- c1ccc2sc(SN3CCOCC3)nc2c1 — lower, -5.48
- COC(=O)CCCCC(=O)OC — lower, -1.22
- COC(F)(F)C(F)(F)F — higher, 3.21
- CCCCCCCCCCCCCCCCCCCCCCC — lower, -4.76
- CCC1(CC2(c3cccc(Cl)c3)CO2)C(=O)c2ccccc2C1=O (stereo unspecified) — lower, -7.7
- CCOc1ccccc1 — lower, 0.185
- Cc1cc(OC(=O)N(C)C)n(C(C)C)n1 — lower, -3
- CCC(C(C)C)C(C)C — higher, 1

For `O=Cc1ccc2c(c1)OCO2`, the ready biodegradability was “readily biodegradable”.
With `CCCCOC(=O)CC(CC(=O)OCCCC)(OC(C)=O)C(=O)OCCCC` the ready biodegradability was “readily biodegradable”.
With `c1ccc2sc(SN3CCOCC3)nc2c1` the ready biodegradability was “not readily biodegradable”.
In the case of `CCCCCCCCCCCCCCCCCCCCCCC`, the ready biodegradability was “readily biodegradable”.
With `CCOc1ccccc1` the ready biodegradability was “readily biodegradable”.
With `Cc1ccc(O)cc1Cl` the ready biodegradability was “not readily biodegradable”.
For `O=C(ON=C1C=CC(=NOC(=O)c2ccccc2)C=C1)c1ccccc1`, the ready biodegradability was “not readily biodegradable”.
For `CCCCOCCCC`, the ready biodegradability was “not readily biodegradable”.

Work on `CCCCCCCCCCCCCCCCCCCCCCC` yielded a log10 biodegradation half-life (days) of 2.16.

With `CCc1cnc(C2=NC(C)(C(C)C)C(=O)N2)c(C(=O)O)c1` (stereo unspecified) the log10 Koc (L/kg) was 0.85.

For `CCCCOCCCC`, the log10 Koa was 3.89.

Same assay, conditions: fish

Point of comparison: `O=C(O)c1c(Cl)cccc1Cl`, log10 BCF 0.26. Against it:
- Nc1cc(S(=O)(=O)O)cc2cc(S(=O)(=O)[O][Na])cc(O)c12 — higher, 0.46
- CCCCCCCCOc1ccc(C(=O)c2ccccc2)c(O)c1 — higher, 1.9
- O=[N+]([O-])c1ccccc1 — higher, 0.67
- COP(=O)(OC)Oc1ccc([N+](=O)[O-])c(C)c1 — within 0.2 log units, 0.44
- CCCCOCCCC — higher, 1.86

Point of comparison: `O=[N+]([O-])c1ccccc1`, log10 biotransformation half-life (days) -0.93. Against it:
- COP(=O)(OC)Oc1ccc([N+](=O)[O-])c(C)c1 — higher, 0.01
- Clc1cc(Cl)c(Cl)c(-c2ccccc2Cl)c1 — higher, 2.8
- CCCCOCCCC — higher, -0.25
